# Results: ChEMBL document CHEMBL1156506, “Changes to the HIV long terminal repeat and to HIV integrase differentially impact HIV integrase assembly, activity, and the binding of strand transfer inhibitors” (J Biol Chem, 2007)
# pKd: −log10 of the molar value.
# Assay: Binding affinity to HIV wild type integrase
# Design: species or system Human immunodeficiency virus
smiles,measurement,value
[3H]C([3H])([3H])n1c(N2CCCCS2(=O)=O)nc(C(=O)NCc2ccc(F)cc2)c(O)c1=O,pKd,7.68
